Values of other authors in US5229007A (priority 1992, dated 1993).

Assays:
insect = settings: in vivo

## C/C=C(\C)C(=O)O[C@H]1C[C@@H](OC(C)=O)[C@@]2(C(=O)OC)CO[C@H]3[C@@H](O)[C@@](C)([C@]45O[C@@]4(C)[C@H]4C[C@@H]5O[C@@H]5OC=C[C@@]54O)[C@H]4[C@]1(CO[C@]4(O)C(=O)OC)[C@@H]32 [azadirachtin]
insect
  insect growth regulator and feeding deterrent activity: potent insect growth regulator and feeding deterrent
Alkaline solutions
  stability in alkaline solutions: degraded in alkaline solutions
Elevated temperatures
  stability at elevated temperatures: decomposes at elevated temperatures
